The text below walks through data of US5194437A, “1,4-disubstituted piperazines” (Adir et Compagnie, priority 1990, dated 1993).

A word on the Ki: it is the dissociation constant of the complex between target and ligand, obtained from inhibition or displacement. Low readings indicate higher affinity, high ones lower affinity.

The first assay deals with T1, 5-HT1A receptors (Rattus norvegicus, UniProt P19327).
T1 sequence (P19327 1-422): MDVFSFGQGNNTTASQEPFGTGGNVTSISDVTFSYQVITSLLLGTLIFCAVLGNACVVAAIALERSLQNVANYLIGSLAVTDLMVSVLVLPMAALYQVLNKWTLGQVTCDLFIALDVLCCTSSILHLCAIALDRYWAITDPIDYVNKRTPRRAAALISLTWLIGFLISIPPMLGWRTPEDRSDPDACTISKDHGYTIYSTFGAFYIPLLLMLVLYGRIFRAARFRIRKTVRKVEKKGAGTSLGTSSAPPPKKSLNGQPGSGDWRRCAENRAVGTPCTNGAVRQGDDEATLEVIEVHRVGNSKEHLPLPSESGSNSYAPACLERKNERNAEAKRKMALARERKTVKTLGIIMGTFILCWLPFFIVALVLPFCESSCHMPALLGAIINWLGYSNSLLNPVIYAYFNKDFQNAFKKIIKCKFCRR
In words: Body temperature (hypothermia), agonist and antagonist activity. To be noted: agonist: induction of hypothermia; s.c.; minimum effective dose. The arrangement: from tissue; host or cells: whole animal, male Wistar rat (in vivo). It counts as in vivo, male Wistar rats. As to the method: (§1) The tests were carried out on male Wistar rats weighing from 200 to 220 g which had free access to food and drinking water, in standard cages.
(§2) The animals are housed individually for the hypothermia, corticosterone secretion and flat body posture tests, and in groups of three for the tail flick test.
(§3) The laboratory temperature is kept at 21°±1° C., with 60 ±5% humidity. The rats are subjected to a light/dark cycle of 12 hours/12 hours (the light cycle commencing at 7.30 a.m.).
(§4) a/ General procedure for tests of agonist and antagonist activities on 5-HT1A receptors.
(§5) The test compounds were administered subcutaneously (s.c.) 60 minutes before the start of the test, that is to say 30 minutes before the vehicle (agonist responses) or 8-OH-DPAT (antagonist responses).
(§6) In all the tests, the solvent is used in parallel as the control. The animals were allowed to rest in their cages during the time between the injections and evaluation.
(§7) For the agonist studies, the solvent was administered at a dose of 1 ml/kg s.c. 30 minutes before the start of the test. For the antagonist studies, doses of 8-OH-DPAT inducing sub-maximal responses were chosen, i.e. doses of 0.63, 0.16, 0.16 and 0.16 mg/kg s.c. for the tail flick test, the flat body posture test, the corticosterone secretion test and the hypothermia test, respectively.
The rats are immobilised and a lubricated digital thermometer (Thermistoprobe from Testotherm, Basle, Switzerland) is inserted into the rectum to a depth of 5 cm. 30 seconds after insertion, the temperature is read off a digital scale. The percentage inhibition is calculated with the aid of the formula mentioned above.
(§8) In general, after variance analysis, the results are subjected to Dunnett's test. Results are regarded as significant if p<0.05.
(§9) The doses of the test compounds are all expressed in terms of the base. Unless otherwise mentioned, all the compounds were dissolved in sterile water (to which a few drops of lactic acid are added, if necessary) and administered at a volume of 1 ml/kg s.c..
Consider `c1ccc2c(c1)CCC2CN1CCN(c2cccc3c2OCCO3)CC1` (racemic) [Example 15, (R,S)-4-(benzodioxan-5-yl)-1-[(indan-1-yl)-methyl]-piperazine], for which the “Hypothermia M.E.D.” value was found to be 10.0 mg/kg.
As for `c1ccc2c(c1)CC2CCN1CCN(c2cccc3c2OCCO3)CC1` (racemic) [Example 2, (R,S)-4-(benzodioxan-5-yl)-1-[2-(benzocyclobutan-1-yl)-ethyl]-piperazine], the “Hypothermia M.E.D.” value is reported as 40.0 mg/kg.
As to `c1ccc2c(c1)CC(CCN1CCN(c3cccc4c3OCCO4)CC1)C2` [Example 20, 4-(benzodioxan-5-yl)-1-[2-(indan-2-yl)-ethyl]-piperazine], the “Hypothermia M.E.D.” value was determined as 10.0 mg/kg.

Staying with this assay, now noted: rat, sc, 1 h; antagonist: inhibition of hypothermia induced by 8-OH-DPAT 0.16 mg/kg s.c.; compound s.c. 60 min before test; read-out: Hypothermia ID50 (95% C.L.).
For `c1ccc2c(c1)CCC2CN1CCN(c2cccc3c2OCCO3)CC1` (racemic) [Example 15, (R,S)-4-(benzodioxan-5-yl)-1-[(indan-1-yl)-methyl]-piperazine], the ED50 worked out at 1.53 mg/kg.
On the same count and under the same terms, the figure for `c1ccc2c(c1)CC2CCN1CCN(c2cccc3c2OCCO3)CC1` (racemic) [Example 2, (R,S)-4-(benzodioxan-5-yl)-1-[2-(benzocyclobutan-1-yl)-ethyl]-piperazine] is 0.65 mg/kg; for `c1ccc2c(c1)CC(CCN1CCN(c3cccc4c3OCCO4)CC1)C2` [Example 20, 4-(benzodioxan-5-yl)-1-[2-(indan-2-yl)-ethyl]-piperazine] it is 0.58 mg/kg.

In the next assay the target is T1, 5-HT1A receptors. In words: Spontaneous tail flick test (STF), agonist and antagonist activity. Type of assay: in vivo, male Wistar rats. The arrangement: from tissue; host or cells: whole animal, male Wistar rat (in vivo). The following applies: agonist: induction of STF; s.c.; minimum effective dose. How it is done: as §1, §2, §3, §4, §5, §6, §7
Tail flicks were determined in animals restrained in horizontal, opaque plastics cylinders, the animals' tails hanging freely over the edge of the laboratory bench. After a 5-minute adaptation period, the number of movements made in 5 minutes is recorded. One STF is defined as the raising of the tail to a level higher than the level of the body axis [Millan M. J. et al., J. Pharmacol. Exp. Ther., 256, 973-982 (1990)].
as §8, §9
Turning to `c1ccc2c(c1)CC2CCN1CCN(c2cccc3c2OCCO3)CC1` (racemic) [Example 2, (R,S)-4-(benzodioxan-5-yl)-1-[2-(benzocyclobutan-1-yl)-ethyl]-piperazine], the “Spontaneous tail flicks M.E.D.” value is > 10.0 mg/kg.

The assay is the same for the next values; noted with them: rat, sc, 1 h; antagonist: inhibition of STF induced by 8-OH-DPAT 0.63 mg/kg s.c.; compound s.c. 60 min before test; read-out: Spontaneous tail flicks ID50 (95% C.L.).
Turning to `c1ccc2c(c1)CCC2CN1CCN(c2cccc3c2OCCO3)CC1` (racemic) [Example 15, (R,S)-4-(benzodioxan-5-yl)-1-[(indan-1-yl)-methyl]-piperazine], the ED50 stood at 0.085 mg/kg.
For `c1ccc2c(c1)CC2CCN1CCN(c2cccc3c2OCCO3)CC1` (racemic) [Example 2, (R,S)-4-(benzodioxan-5-yl)-1-[2-(benzocyclobutan-1-yl)-ethyl]-piperazine], the ED50 came to 0.085 mg/kg.
Regarding `c1ccc2c(c1)CC(CCN1CCN(c3cccc4c3OCCO4)CC1)C2` [Example 20, 4-(benzodioxan-5-yl)-1-[2-(indan-2-yl)-ethyl]-piperazine], the ED50 was determined as 0.18 mg/kg.

A further assay concerns the target T1, 5-HT1A receptors. In words: Flat body posture (FBP), agonist response and antagonism of 8-OH-DPAT. It counts as in vivo, male Wistar rats. To be noted: sc, 1 h, read-out: Flat body posture ED50 (95% C.L.), antagonism of 8-OH-DPAT, inhibition of FBP, 8-OH-DPAT 0.16 mg/kg s.c., compound s.c. 60 min before test. Details: from tissue; host or cells: whole animal, male Wistar rat (in vivo). As to the method: as §1, §2, §3, §4, §5, §6, §7
(§10) The same animals were employed for the evaluation of the effect of the test compounds on the FBP and for the determination of the plasma levels of CS. All the tests were carried out in the morning between 10.30 and 12.30, i.e. when the cicardian levels of CS are at their lowest.
25 minutes after the treatment (i.e. 5 minutes before decapitation), the animals are observed in their cages and the presence or absence of FBP is noted.
(§11) The presence of FBP is defined by a characteristic posture of the animal. The animal is then in a position of ventral decubitus with the hind limbs clearly in extension. 5 minutes after observation of FBP, the animals are decapitated and the trunk blood is collected in chilled tubes containing 50 μl of a 10% EDTA solution. After centrifugation at 4000 rpm, the plasma is removed and stored at -30° C. until assay.
as §8
For the dose-response for induction and inhibition of FBP, the effective doses 50 (ED50) (doses at which 50% of the animals show a response) were calculated by the method of Litchfield and Wilcoxon.
as §9
Take `c1ccc2c(c1)CCC2CN1CCN(c2cccc3c2OCCO3)CC1` (racemic) [Example 15, (R,S)-4-(benzodioxan-5-yl)-1-[(indan-1-yl)-methyl]-piperazine]: the ED50 was ≥ 2.5 mg/kg.
Still for that read-out and setting: the figure for `c1ccc2c(c1)CC2CCN1CCN(c2cccc3c2OCCO3)CC1` (racemic) [Example 2, (R,S)-4-(benzodioxan-5-yl)-1-[2-(benzocyclobutan-1-yl)-ethyl]-piperazine] is 0.76 mg/kg.
On the same count and under the same terms, the figure for `c1ccc2c(c1)CC(CCN1CCN(c3cccc4c3OCCO4)CC1)C2` [Example 20, 4-(benzodioxan-5-yl)-1-[2-(indan-2-yl)-ethyl]-piperazine] is < 2.5 mg/kg.

Staying with this assay, now noted: sc, induction of FBP, s.c., dose at which 50% of the animals show a response, read-out: Flat body posture ED50 (95% C.L.), agonist response.
In the case of `c1ccc2c(c1)CCC2CN1CCN(c2cccc3c2OCCO3)CC1` (racemic) [Example 15, (R,S)-4-(benzodioxan-5-yl)-1-[(indan-1-yl)-methyl]-piperazine], the ED50 was > 2.5 mg/kg.
For `c1ccc2c(c1)CC2CCN1CCN(c2cccc3c2OCCO3)CC1` (racemic) [Example 2, (R,S)-4-(benzodioxan-5-yl)-1-[2-(benzocyclobutan-1-yl)-ethyl]-piperazine], the ED50 is > 20 mg/kg.
For the compound `c1ccc2c(c1)CC(CCN1CCN(c3cccc4c3OCCO4)CC1)C2` [Example 20, 4-(benzodioxan-5-yl)-1-[2-(indan-2-yl)-ethyl]-piperazine], the ED50 was > 2.5 mg/kg.

Another assay addresses T1, 5-HT1A receptors. The assay can be described thus: In vitro binding test, 5-HT1A receptors, [3]H-8-OH-DPAT, rat hippocampus membranes. Details: Hippocampus from the brains of decapitated rats; from tissue; host or cells: rat hippocampus membranes (male Wistar); species or system rat (male Wistar).
Conditions: not given
Take `c1ccc2c(c1)CCC2CN1CCN(c2cccc3c2OCCO3)CC1` (racemic) [Example 15, (R,S)-4-(benzodioxan-5-yl)-1-[(indan-1-yl)-methyl]-piperazine]: affinity was put at a Ki of 2 nM.
In the case of `c1ccc2c(c1)CC2CCN1CCN(c2cccc3c2OCCO3)CC1` (racemic) [Example 2, (R,S)-4-(benzodioxan-5-yl)-1-[2-(benzocyclobutan-1-yl)-ethyl]-piperazine], the Ki was 0.617 nM.

The assay is the same for the next values; noted with them: hot ligand [3]H-8-OH-DPAT 0.4 nM; rat hippocampus membranes; 25° C., 30 minutes.
For `c1ccc2c(c1)CC(CCN1CCN(c3cccc4c3OCCO4)CC1)C2` [Example 20, 4-(benzodioxan-5-yl)-1-[2-(indan-2-yl)-ethyl]-piperazine], the “Affinity (pKi)” value was determined as 9.18.

The target of the next assay is T1, 5-HT1A receptors. The assay can be described thus: Corticosterone secretion (CS), plasma, agonist and antagonist activity. The following applies: agonist: induction of CS; s.c.; minimum effective dose. It counts as in vivo, male Wistar rats. Details: from tissue; host or cells: whole animal, male Wistar rat (in vivo). How it is done:
as §1, §2, §3, §4, §5, §6, §7, §10, §11
CS was determined using a radio-competitive assay for a CS-binding protein in plasma: transcortin. The latter is obtained from monkey serum. Separation of the CS-transcortin complexes from free CS was effected by means of a solution of dextran and active charcoal. The detection limit was 50 pg/tube. Intra- and inter-assay variations were 5 and 15%, respectively [cf. Rivet J. M. et al., Eur. J. Pharmacol., 183, 634-635 (1990)].
Since the base levels of CS in plasma are never zero, the following formula was used to calculate the percentage inhibition of plasmatic CS induced by 8-OH-DPAT: [formula]
as §8, §9
For `c1ccc2c(c1)CCC2CN1CCN(c2cccc3c2OCCO3)CC1` (racemic) [Example 15, (R,S)-4-(benzodioxan-5-yl)-1-[(indan-1-yl)-methyl]-piperazine], the “Corticosterone secretion M.E.D.” value is given as > 2.5 mg/kg.
Still for that read-out and setting: the figure for `c1ccc2c(c1)CC2CCN1CCN(c2cccc3c2OCCO3)CC1` (racemic) [Example 2, (R,S)-4-(benzodioxan-5-yl)-1-[2-(benzocyclobutan-1-yl)-ethyl]-piperazine] is 10.0 mg/kg; for `c1ccc2c(c1)CC(CCN1CCN(c3cccc4c3OCCO4)CC1)C2` [Example 20, 4-(benzodioxan-5-yl)-1-[2-(indan-2-yl)-ethyl]-piperazine] it is > 2.5 mg/kg.

The same assay, now with this note: rat, sc, 1 h; antagonist: inhibition of CS induced by 8-OH-DPAT 0.16 mg/kg s.c.; compound s.c. 60 min before test; read-out: Corticosterone secretion ID50 (95% C.L.).
For `c1ccc2c(c1)CCC2CN1CCN(c2cccc3c2OCCO3)CC1` (racemic) [Example 15, (R,S)-4-(benzodioxan-5-yl)-1-[(indan-1-yl)-methyl]-piperazine], the ED50 was > 2.5 mg/kg.
For `c1ccc2c(c1)CC2CCN1CCN(c2cccc3c2OCCO3)CC1` (racemic) [Example 2, (R,S)-4-(benzodioxan-5-yl)-1-[2-(benzocyclobutan-1-yl)-ethyl]-piperazine], the ED50 turned out to be 0.66 mg/kg.
Turning to `c1ccc2c(c1)CC(CCN1CCN(c3cccc4c3OCCO4)CC1)C2` [Example 20, 4-(benzodioxan-5-yl)-1-[2-(indan-2-yl)-ethyl]-piperazine], the ED50 is < 2.5 mg/kg.
